These results are taken from US20130252951A1, “7-HYDROXY-PYRAZOLO[1,5-A] PYRIMIDINE COMPOUNDS AND THEIR USE AS CCR2 RECEPTOR ANTAGONISTS” (Proximagen Limited, priority 2010, published 2013).

For the assay, the target named is human CCR2 (Homo sapiens, UniProt P41597). Kind of assay: CCR2 functional calcium assay (FLIPR calcium flux, hMCP-1 challenge). The assay is classed as cell-based. Set-up: expressed in transfected cells; host or cells: HEK293 EBNA cells. To be noted: HEK293 EBNA cells transfected with human CCR2, hMCP-1 challenge; read-out: Functional CCR2 fKi. The text has this:
The CCR2 receptor couples through the Gi/Gq signaling pathway and results in activation of calcium mobilization. The functional activity of test compounds was routinely tested by measuring the ability of compounds to antagonize CCR2 activity in a dose dependent manner, in HEK293 EBNA cells transfected with the human CCR2 receptor (hMCP-1 challenge), using a calcium flux Fluorescent Imaging Plate Reader FLIPR assay. Non-transfected HEK293 EBNA cells were used as control of non-specific response.
Briefly, test compounds were dissolved in dimethyl sulfoxide (DMSO) to a concentration of 10 mM and stored in matrix screenmate racks. The required amount of compound was transferred to 96-well compound plates on the day of assay and diluted in assay buffer to the required final concentration; dose-response measurements were assayed by making 1:3 serial dilutions to produce 10 point curves. The compounds were then transferred to 384-well assay plates ready for use. Top concentrations were adjusted depending on the potency of the compounds with a typical concentration range of 30 μM to 0.5 nM being used. The assay buffer used was HBSS buffer supplemented with 20 mM HEPES and 0.1% BSA, pH7.4. The loading/wash buffers were the same as the assay buffer.
Cells were suspended in culture medium at a density of 10000 cells/50 μl (the cell culture media composition was DMEM high glucose supplemented with 10% dialyzed FBS, 250 μg/ml Geneticin, and 400 μg/ml Hygromycin B), transferred to 384-well black/clear Costar plates (Costar #3712) (50 μl/well) and incubated at 37° C., in a 5% CO2/95% air humidified incubator for 16 h. The cells were washed with assay buffer at 37° C. using the Biotek ELx 405, washing 3 times, leaving 20 μl buffer in the well. 20 μl Fluo-4 (Fluo-4 stock solution (1 mM) was prepared by dissolving one vial of Fluo-4 (50 μg) in 45 μl of pluronic acid (240 mg/ml in DMSO). This stock solution of Fluo-4 was then diluted 250 times with loading buffer to give a Fluo-4 concentration of 4 μM. The dye solution (used within 2 h and kept away from light) was added to each well using a repeating multichannel pipette; the cells were then incubated at 37° C. for 60 min. Following the incubation, cells were washed in assay buffer at 37° C. using the Biotek ELx 405, washing 3 times, leaving 40 μl in each well and incubated for 10 min at 37° C. before use. A combined agonist/antagonist protocol was used. Compound (antagonist) was added to the cell plate using the FLIPR. Basal fluorescence was recorded every second for 10 seconds prior to compound addition (10 μl) and fluorescence recorded every second for 1 minute then every 6 seconds for a further 1 minute. Agonist (MCP-1) was then added using the FLIPR and fluorescence recorded as described above.
The positive control (agonist) was human recombinant MCP-1 which was stored as a stock concentration of 10 μM in distilled water and stored at −20° C. (maximal response: 30 nM; EC50 dose: 3-5 nM). The reference compound (antagonist) was RS102895 which was used as a 10 mM DMSO solution and stored at −20° C.
FLIPR responses were measured as peak minus basal fluorescence intensity and were expressed as a percentage of EC50 MCP-1 challenge. Curve-fitting and parameter estimation were carried out using GraphPad Prism 4.0 (GraphPad Software Inc., San Diego, Calif.).
(Calcium assays in cells follow changes in intracellular calcium, usually with a dye or a luminescent sensor.)

human CCR2, sequence (P41597 whole entry): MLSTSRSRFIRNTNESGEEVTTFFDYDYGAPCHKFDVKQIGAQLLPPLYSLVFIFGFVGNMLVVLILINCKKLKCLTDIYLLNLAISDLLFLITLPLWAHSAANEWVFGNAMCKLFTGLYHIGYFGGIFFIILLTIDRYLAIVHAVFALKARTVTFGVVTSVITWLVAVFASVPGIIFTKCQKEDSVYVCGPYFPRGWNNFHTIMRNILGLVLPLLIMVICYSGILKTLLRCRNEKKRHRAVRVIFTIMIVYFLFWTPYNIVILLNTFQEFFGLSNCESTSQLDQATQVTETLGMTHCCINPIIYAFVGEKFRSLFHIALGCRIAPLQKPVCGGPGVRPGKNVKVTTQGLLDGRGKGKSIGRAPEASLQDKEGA

Regarding `COC(=O)c1nc2ccnn2c(O)c1Cc1cccc(Cl)c1` [Example 81, Methyl 6-[(3-chlorophenyl)methyl]-7-hydroxypyrazolo[1,5-a]pyrimidine-5-carboxylate], the Ki was under 10 nM.
The value for `Cc1nc2c(C(=O)N(C)CCC#N)cnn2c(O)c1Cc1ccc(Cl)cc1` [Example 109, 6-[(4-Chlorophenyl)methyl]-N-(2-cyanoethyl)-7-hydroxy-N,5-dimethylpyrazolo[1,5-a] pyrimidine-3-carboxamide] was 100 to 1000 nM.
As to `COCCNC(=O)c1cnn2c(O)c(Cc3cccc(Cl)c3)c(C)nc12` [Example 116, 6-[(3-Chlorophenyl)methyl]-7-hydroxy-N-(2-methoxyethyl)-5-methylpyrazolo[1,5-a]-pyrimidine-3-carboxamide], the Ki fell in the range of 100 to 1000 nM.
The value for `Oc1c(Cc2ccccc2)c(C2CC2)nc2ccnn12` [Example 18, 6-Benzyl-5-cyclopropylpyrazolo[1,5-a]-pyrimidin-7-ol] was under 10 nM; that for `Oc1c(Cc2ccc(Cl)cc2)c(CN2CCOCC2)nc2ccnn12` [Example 91, 6-[(4-Chlorophenyl)methyl]-5-(morpholin-4-ylmethyl)pyrazolo[1,5-a]pyrimidin-7-ol] was 100 to 1000 nM; that for `Cc1noc(Cc2nc3ccnn3c(O)c2Cc2ccc(Cl)cc2)n1` [Example 98, 6-[(4-Chlorophenyl)methyl]-5-[(3-methyl-1,2,4-oxadiazol-5-yl)methyl]pyrazolo[1,5-a]-pyrimidin-7-ol] was 100 to 1000 nM.
Under `Oc1c(Cc2ccc(Cl)c(Cl)c2)c(C2CC2)nc2ccnn12` [Example 30, 5-Cyclopropyl-6-[(3,4-dichlorophenyl)-methyl]pyrazolo[1,5-a]pyrimidin-7-ol] stands under 10 nM; under `CCc1nc2ccnn2c(O)c1Oc1ccc(F)c(F)c1` [Example 62, 6-(3,4-Difluorophenoxy)-5-ethyl-pyrazolo[1,5-a]pyrimidin-7-ol], under 10 nM.
Under `COC(=O)c1nc2ccnn2c(O)c1Cc1ccc(Cl)cc1` [Example 6, Methyl 6-[(4-chlorophenyl)methyl]-7-hydroxypyrazolo[1,5-a]pyrimidine-5-carboxylate] stands 10 to 100 nM.
As for `CC(=O)c1nc2ccnn2c(O)c1Cc1cccc(F)c1` [Example 94, 1-{6-[(3-Fluorophenyl)methyl]-7-hydroxypyrazolo[1,5-a]pyrimidin-5-yl}ethan-1-one], the Ki was in the range of 10 to 100 nM.
For the compound `Oc1c(Cc2cc(F)cc(C(F)(F)F)c2)c(C2CCC2)nc2ccnn12` [Example 48, 5-Cyclobutyl-6-{[3-fluoro-5-(trifluoro-methyl)phenyl]methyl}pyrazolo[1,5-a]-pyrimidin-7-ol], the Ki is under 10 nM.
Under `CC(C)c1nc2ccnn2c(O)c1Cc1cc(F)c(F)c(F)c1` [Example 36, 5-(Propan-2-yl)-6-[(3,4,5-trifluorophenyl)-methyl]pyrazolo[1,5-a]pyrimidin-7-ol] stands under 10 nM.
The value for `CCOC(=O)c1nc2ccnn2c(O)c1Cc1ccc(Cl)c(F)c1` [Example 74, Ethyl 6-[(4-chloro-3-fluorophenyl)methyl]-7-hydroxy pyrazolo[1,5-a]pyrimidine-5-carboxylate] was under 10 nM; that for `Oc1c(Cc2cc(F)cc(Cl)c2)c(C2CC2)nc2ccnn12` [Example 29, 6-[(3-Chloro-5-fluorophenyl)methyl]-5-cyclopropylpyrazolo[1,5-a]pyrimidin-7-ol] was under 10 nM.
Take `COCc1nc2ccnn2c(O)c1Cc1ccc(Cl)c(F)c1` [Example 52, 6-[(4-Choro-3-fluorophenyl)methyl]-5-(methoxymethyl)pyrazolo[1,5-a]pyrimidin-7-ol]: the Ki lay in the range of 10 to 100 nM.
The value for `CC(C)c1nc2ccnn2c(O)c1Cc1ccc(Cl)c(Cl)c1` [Example 41, 6-[(3,4-Dichlorophenyl)methyl]-5-(propan-2-yl)pyrazolo[1,5-a]pyrimidin-7-ol] was under 10 nM; that for `Oc1c(Cc2cccc(OC(F)(F)F)c2)c(C2CC2)nc2ccnn12` [Example 20, 5-Cyclopropyl-6-{[3-(trifluoromethoxy)-phenyl]methyl}pyrazolo[1,5-a]pyrimidin-7-ol] was 10 to 100 nM; that for `COCCNC(=O)c1cnn2c(O)c(Cc3ccc(C)cc3)c(C)nc12` [Example 102, 7-Hydroxy-N-(2-methoxyethyl)-5-methyl-6-[(4-methylphenyl)methyl]pyrazolo[1,5-a]pyrimidine-3-carboxamide] was 100 to 1000 nM.
`CSCCNC(=O)c1cnn2c(O)c(Cc3ccc(Cl)cc3)c(C)nc12` [Example 108, 6-[(4-Chlorophenyl)methyl]-7-hydroxy-5-methyl-N-[2-(methylsulfanyl)ethyl] pyrazolo[1,5-a]pyrimidine-3-carboxamide]: the Ki was in the range of 100 to 1000 nM.
Under `Oc1c(Cc2ccc(F)c(C(F)(F)F)c2)c(C2CC2)nc2ccnn12` [Example 31, 5-Cyclopropyl-6-{[4-fluoro-3-(trifluoro-methyl)phenyl]methyl}pyrazolo[1,5-a]-pyrimidin-7-ol] stands under 10 nM.
Under `Cc1nc2c(C(=O)N3CCN(C)CC3)cnn2c(O)c1Cc1ccc(Cl)cc1` [Example 104, 6-[(4-Chlorophenyl)methyl]-5-methyl-3-[(4-methylpiperazin-1-yl)carbonyl]pyrazolo [1,5-a]pyrimidin-7-ol] stands 100 to 1000 nM.
The value for `CCc1nc2ccnn2c(O)c1Oc1ccc(F)c(Cl)c1` [Example 63, 6-(3-Chloro-4-fluorophenoxy)-5-ethyl-pyrazolo[1,5-a]pyrimidin-7-ol] was 10 to 100 nM; that for `CC(C)c1nc2ccnn2c(O)c1Oc1ccc(Cl)c(Cl)c1` [Example 68, 6-(3,4-diChlorophenoxy)-5-(propan-2-yl)-pyrazolo[1,5-a]pyrimidin-7-ol] was under 10 nM; that for `Oc1c(Cc2ccc(F)c(Cl)c2)c(C2CC2)nc2ccnn12` [Example 28, 6-[(3-Chloro-4-fluorophenyl)methyl]-5-cyclopropylpyrazolo[1,5-a]pyrimidin-7-ol] was under 10 nM.
Consider `CCc1nc2c(C(=O)NCCOC)cnn2c(O)c1Cc1ccc(Cl)cc1` [Example 117, 6-[(4-Chlorophenyl)methyl]-5-ethyl-7-hydroxy-N-(2-methoxyethyl)pyrazolo-[1,5-a]pyrimidine-3-carboxamide], for which the Ki was in the range of 10 to 100 nM.
The value for `Oc1c(Cc2ccc(C(F)(F)F)cc2)c(C2CC2)nc2ccnn12` [Example 23] was under 10 nM; that for `Oc1c(Cc2cc(F)c(F)c(F)c2)c(C2CC2)nc2ccnn12` [Example 26, 5-Cyclopropyl-6-[(3,4,5-trifluorophenyl)-methyl]pyrazolo[1,5-a]pyrimidin-7-ol] was under 10 nM.
The value for `O=C(O)c1nc2ccnn2c(O)c1Cc1cccc(Cl)c1` [Example 85, 6-[(3-Chlorophenyl)methyl]-7-hydroxypyrazolo[1,5-a]pyrimidine-5-carboxylic acid] was 100 to 1000 nM.
The value for `Cc1nc2c(C(=O)N(C)C)cnn2c(O)c1Cc1ccc(Cl)cc1` [Example 100, 6-[(4-Chlorophenyl)methyl]-7-hydroxy-N,N,5-trimethylpyrazolo[1,5-a]pyrimidine-3-carboxamide] was 100 to 1000 nM; that for `CC(C)OC(=O)c1nc2ccnn2c(O)c1Cc1cccc(C(F)(F)F)c1` [Example 86, Propan-2-yl7-hydroxy-6-{[3-(trifluoromethyl)phenyl]methyl}pyrazolo[1,5-a]pyrimidine-5-carboxylate] was 10 to 100 nM.
Consider `C=CCNC(=O)c1cnn2c(O)c(Cc3ccc(Cl)cc3)c(C)nc12` [Example 106, 6-[(4-Chlorophenyl)methyl]-7-hydroxy-5-methyl-N-(prop-2-en-1-yl)pyrazolo[1,5-a]-pyrimidine-3-carboxamide], for which the Ki is 100 to 1000 nM.
Turning to `Cc1nc2c(C(=O)NC[C@H]3CCCO3)cnn2c(O)c1Cc1ccc(Cl)cc1` [Example 101, 6-[(4-Chlorophenyl)methyl]-7-hydroxy-5-methyl-N-[(2R)-oxolan-2-ylmethyl]-pyrazolo[1,5-a]pyrimidine-3-carboxamide], the Ki is 100 to 1000 nM.
